Results taken from patent US5952511A, “Indolin-2-one derivatives” (Chugai Seiyaku Kabushiki Kaisha, priority 1993, dated 1999).

Experiments:
[1] = target: T1, CCK-B receptors (rat cerebral cortex) (Rattus norvegicus, UniProt P30553); assay: CCK-B Receptor Binding Test in Rat Cerebral Cortex (Test Example 3); design: species or system rat (Sprague-Dawley, male); settings: inhibition of specific 125I-CCK-8 sulfated binding (15 pM), 25° C., 120 min
T1 construct: Cerebral cortex was minced in the same buffer, and homogenized with Polytron; from tissue; host or cells: cerebral cortex membrane fraction of Sprague-Dawley male rats
T1 sequence (P30553 1-452): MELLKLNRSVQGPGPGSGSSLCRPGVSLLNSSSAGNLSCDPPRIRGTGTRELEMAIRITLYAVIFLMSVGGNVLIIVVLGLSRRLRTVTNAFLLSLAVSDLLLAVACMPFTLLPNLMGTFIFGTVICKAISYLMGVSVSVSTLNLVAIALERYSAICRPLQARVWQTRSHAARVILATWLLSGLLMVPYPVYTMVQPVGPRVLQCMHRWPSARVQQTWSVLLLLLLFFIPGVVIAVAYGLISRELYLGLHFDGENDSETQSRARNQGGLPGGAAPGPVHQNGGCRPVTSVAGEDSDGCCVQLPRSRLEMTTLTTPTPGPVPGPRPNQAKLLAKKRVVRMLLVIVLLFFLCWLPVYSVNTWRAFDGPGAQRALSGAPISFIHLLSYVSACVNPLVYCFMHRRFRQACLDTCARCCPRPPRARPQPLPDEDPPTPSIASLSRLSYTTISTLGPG
Procedure: CCK-B Receptor Binding Test in Rat Cerebral Cortex
A rat cortical membrane fraction was prepared in accordance with the method of Chang, et al., Proc. Natl. Acad. Sci., U.S.A., 83, 4923 (1986). Sprague-Dawley male rats were sucrified and the brains were removed and immersed in a 50 mM Tris-HCl buffer (pH 7.4) under ice-cooling, and the cortex was dissected. Cerebral cortex was minced in the same buffer, and homogenized with Polytron. The homogenate was centrifuged at 2,500 g, and the supernatant was further centrifuged at 50,000 g. The pellet was resuspended in a reaction buffer solution (10 mM HEPES, 5 mM MgCl2, 1 mM EGTA, 130 mM NaCl; pH 6.5).
To 150 μl of the resulting rat cerebral cortex suspension were added 20 μl of ^125 I-CCK-8 sulfated (final concentration: 15 pM) and 10 μl of a test compound or a solvent (for total binding) or 1 μM CCK-8 sulfated (for nonspecific binding), and the reaction buffer solution was added there to make 1 ml. The reaction mixture was incubated at 25° C. for 120 minutes, followed by filtration through a GF/B filter (produced by Whatman). The radio-activity of the membrane fraction adsorbed onto the filter was measured with a gamma-counter.
The specific binding to CCK-B receptors was obtained from a difference between the total binding and the nonspecific binding. The IC50 of the test compound in inhibition of specific binding was calculated.

[2] = target: T2, gastrin receptors (guinea pig gastric glands) (Cavia porcellus, UniProt H0VZC5); assay: Gastrin Receptor Binding Test in Guinea Pig Gastric Glands (Test Example 1); design: species or system guinea pig (Hartley, male); settings: inhibition of specific 125I-gastrin I human binding (22.5 pM), 25° C., 45 min
T2 construct: The gastric glands were isolated from the tissue with a pipette; from tissue; host or cells: isolated gastric glands from gastric mucosa of Hartley male guinea pigs
T2 sequence (H0VZC5 1-426): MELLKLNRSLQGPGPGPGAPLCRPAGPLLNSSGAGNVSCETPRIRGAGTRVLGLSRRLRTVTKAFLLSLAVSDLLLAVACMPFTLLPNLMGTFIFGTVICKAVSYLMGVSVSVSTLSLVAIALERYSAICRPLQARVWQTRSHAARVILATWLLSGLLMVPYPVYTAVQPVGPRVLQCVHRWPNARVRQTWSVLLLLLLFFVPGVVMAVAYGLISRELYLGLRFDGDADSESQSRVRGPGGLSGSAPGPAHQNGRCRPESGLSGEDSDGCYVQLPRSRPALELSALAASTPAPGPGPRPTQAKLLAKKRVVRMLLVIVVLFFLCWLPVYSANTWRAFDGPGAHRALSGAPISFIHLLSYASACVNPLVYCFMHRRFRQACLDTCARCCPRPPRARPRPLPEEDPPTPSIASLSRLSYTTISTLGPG
Procedure: Gastrin Receptor Binding Test in Guinea Pig Gastric Glands
Preparation of Gastric Glands:
Guinea pig gastric glands were prepared according to the method of Chang, et al., Biochem. Biophys. Res. Commun., 134, 895 (1986). The gastric mucosa of a Hartley male guinea pig was peeled off. After washing, the mucosa was minced with scissors in buffer A (Eagle's MEM containing 2 mM L-glutamine and 25 mM HEPES; pH 7.4). After washing, the minced tissue was incubated in buffer A containing 0.025% collagenase, 0.01% soy bean trypsin inhibitor, and 0.1% BSA at 37° C. for 60 minutes under 95% O2 and 5% CO2. The gastric glands were isolated from the tissue with a pipette, washed twice with buffer A, and filtered through a mesh. Then, the gastric glands were obtained by centrifugation.
Guinea pig gastric glands were resuspended in buffer B (Hank's solution containing 10 mM HEPES and 0.2% BSA; pH 7.4) (10 ml of buffer B per guinea pig).
To 200 μl of the suspension containing the resuspended isolated gastric glands were added 20 μl of ^125 I-gastrin I human (final concentration: 22.5 pM). Then, 10 μl of a test compound or a solvent (for total binding) or 10 μM Pentagastrin (for nonspecific binding), and buffer B was added there to make a total volume of 1 ml. The reaction mixture was incubated at 25° C. for 45 minutes and then centrifuged at 12000 g. The supernatant was removed by suction, and the radioactivity of the isolated gastric glands was measured with a gamma-counter.
The specific binding of gastrin to gastrin receptors was obtained from a difference between the total binding and the nonspecific binding. The IC50 of the test compound in inhibition of specific binding was calculated.

[3] = system: gastric acid secretion; assay: Inhibitory Activity on Gastric Acid Secretion in Pylorus Ligated Rats (Test Example 2); type: in vivo, rat (Sprague-Dawley, male); settings: Rattus norvegicus, intraduodenal, 10 mg/kg, i.d., 4 h
Procedure: Inhibitory Activity on Gastric Acid Secretion in Pyrolus Ligated Rats
Sprague-Dawley male rats weighing about 200 g were deprived of food for 24 hours while allowed water ad libitum. The abdomen was opened under anesthesia with ethyl ether, the pyrolus ligated, and the abdomen closed. The rats were deprived of food and water for 4 hours until they were surcrified with ethyl ether. The stomach was removed, and gastric juice was collected and measured. The gastric juice was centrifuged at 3000 rpm, and the supernatant was titrated up to pH 7.0 with 0.1N NaOH solution to obtain the acidity of the gastric juice. The amount of the gastric acid output was calculated by multiplying the gastric juice volume by the acidity, and the percent inhibition of acid secretion was obtained according to the following equation. A test compound, suspended in a 3% gum arabic solution, was administered intraduodenally at a dose of 2 ml/kg immediately after the pyrolus ligation.
Inhibition (%)=[(Average amount of gastric acid output in control group--Average amount of gastric acid output in test group)/Average amount of gastric acid secreted […]]×100

[4] = system: gastrin receptors; settings: in words; cited from earlier work
[5] = system: gastric acid secretion; settings: in words; cited from earlier work
[6] = system: CCK-B receptors; settings: in words; cited from earlier work

Row | Compound | IC50 [1] | IC50 [2] | inhibition in vivo at 10 mg/kg [3] | binding activity to gastrin receptors [4] | inhibitory activity on gastric acid secretion when administered in vivo [5] | binding activity to CCK-B receptors [6]
1 | CCOC(CN1C(=O)C(CC(=O)Nc2cccc(OC)c2)(NC(=O)Nc2ccc(C)cc2)c2ccccc21)OCC (racemic) [Example 129, (RS)-1-(2,2-Diethoxyethyl)-3-((3-methoxyphenyl)aminocarbonylmethyl)-3-(N'-(4-methylphenyl)ureido)indolin-2-one] | 0.39 nM | 3.6 nM | 71% | – | – | –
2 | CCOC(CN1C(=O)C(CC(=O)Nc2ccc(N(C)C)cc2)(NC(=O)Nc2ccc(C)cc2)c2ccccc21)OCC (racemic) [Example 130, (RS)-1-(2,2-Diethoxyethyl)-3-((4-(N,N-dimethylamino)phenyl)aminocarbonylmethyl)-3-(N'-(4-methylphenyl)ureido)indolin-2-one] | 2.3 nM | 4.9 nM | 71% | – | – | –
3 | CCOC(CN1C(=O)C(CC(=O)Nc2ccc(C)cn2)(NC(=O)Nc2ccc(C)cc2)c2ccccc21)OCC (racemic) [Example 138, (RS)-1-(2,2-Diethoxyethyl)-3-(N'-(4-methylphenyl)ureido)-3-((5-methylpyrido-2-yl)aminocarbonylmethyl)indolin-2-one] | 0.5 nM | 2.2 nM | 69% | – | – | –
4 | CCOC(CN1C(=O)C(CC(=O)Nc2ccc(OC)nc2)(NC(=O)Nc2ccc(C)cc2)c2ccccc21)OCC (racemic) [Example 143, (RS)-1-(2,2-Diethoxtyethyl)-3-((2-methoxypyrido-5-yl)aminocarbonylmethyl)-3-(N'-(4-methylphenyl)ureido)indolin-2-one] | 1.9 nM | 1.5 nM | 64% | – | – | –
5 | CCOC(CN1C(=O)C(CC(=O)Nc2ccc(N(C)C)cc2)(NC(=O)Nc2cccc(OC)c2)c2ccccc21)OCC (racemic) [Example 156] | 2.8 nM | 6.5 nM | 69% | – | – | –
6 | CCOC(CN1C(=O)C(CC(=O)Nc2ccc(C)cn2)(NC(=O)Nc2cccc(OC)c2)c2ccccc21)OCC (racemic) [Example 158, (RS)-1-(2,2-Diethoxyethyl)-3-(N'-(3-methoxyphenyl)ureido)-3-((5-methylpyrido-2-yl)aminocarbonylmethyl)indolin-2-one] | 0.56 nM | 1.4 nM | 66% | – | – | –
7 | CCOC(CN1C(=O)C(CC(=O)Nc2ccc(C)cc2)(NC(=O)Nc2ccc(C)cc2)c2ccccc21)OCC (single isomer, unassigned; (+)) [Example 174, (+)-1-(2,2-Diethoxyethyl)-3-(4-methylphenyl)aminocarbonylmethyl-3-(N'-(4-methylphenyl)ureido)indolin-2-one] | 0.42 nM | 0.54 nM | 70% | – | – | –
8 | CCOC(CN1C(=O)C(CC(=O)Nc2ccc(C)cn2)(NC(=O)Nc2ccc(C)cc2)c2ccccc21)OCC (single isomer, unassigned; (+)) [Example 179] | 0.14 nM | 1.6 nM | 63% | – | – | –
9 | CCOC(CN1C(=O)C(CC(=O)Nc2ccc(N(C)C)cc2)(NC(=O)Nc2ccc(C)cc2)c2ccccc21)OCC (single isomer, unassigned; (+)) [Example 180, (+)-1-(2,2-Diethoxyethyl)-3-((4-(N,N-dimethylamino)phenyl)aminocarbonylmethyl)-3-(N'-(4-methylphenyl)ureido)indolin-2-one] | 0.36 nM | 4.6 nM | 73% | – | – | –
10 | CCOC(CN1C(=O)C(CC(=O)Nc2ccc(OC)nc2)(NC(=O)Nc2ccc(C)cc2)c2ccccc21)OCC (single isomer, unassigned; (+)) [Example 181, (+)-1-(2,2-Diethoxyethyl)-3-((2-methoxypyrido-5-yl)aminocarbonylmethyl)-3-(N'-(4-methylphenyl)ureido)indolin-2-one] | 0.78 nM | 2.2 nM | 69% | – | – | –
11 | CCOC(CN1C(=O)C(CC(=O)Nc2ccc(C)cn2)(NC(=O)Nc2cccc(OC)c2)c2ccccc21)OCC (single isomer, unassigned; (+)) [Example 190, (+)-1-(2,2-Diethoxyethyl)-3-(N'-(3-methoxyphenyl)ureido)-3-((5-methylpyrido-2-yl)aminocarbonylmethyl)indolin-2-one] | 0.1 nM | 0.68 nM | 70% | – | – | –
12 | CCOC(CN1C(=O)C(CC(=O)Nc2ccc(N(C)C)cc2)(NC(=O)Nc2cccc(OC)c2)c2ccccc21)OCC (single isomer, unassigned; (+)) [Example 191] | 0.45 nM | 5.5 nM | 78% | – | – | –
13 | Cc1cccc(NC(=O)N[C@@H]2N=C(c3ccccc3)c3ccccc3N(C)C2=O)c1 [L-365,260] | – | – | – | high binding activity to gastrin receptors | do not exert powerful inhibitory activity on gastric acid secretion | –
14 | CCCN(CCC)C(=O)C(CCC(=O)O)NC(=O)c1ccccc1 (stereo not shown) [Proglumide] | – | – | – | very weak | – | very weak
